# Columns and labels:
# [1] = system: pain after surgical removal of impacted third molars; test: Phase 2 dental pain study: pain relief, 5-point categorical scale (TOTPAR, pain relief score, peak pain relief, time to peak pain relief); format: in vivo, human; conditions: for Pain relief score A Little (1), % / Pain relief score None (0), % / Pain relief score Some (2), % / Pain relief score A Lot (3), % / Pain relief score Complete (4), %: 400 mg; for TOTPAR-8, LS mean difference vs placebo: treatment - placebo
# Experimental: This was a phase-2, multicenter, randomized, double-blind, single-dose, parallel-group, active- and placebo-controlled study to evaluate the efficacy and safety of Indomethacin Nanoformulation Capsules (20 mg and 40 mg) in subjects with postoperative dental pain.
# On Day 1, eligible subjects underwent extraction of 2 or more third molars, at least 1 of which had to be a fully or partially bone-impacted mandibular molar. If only 2 molars were removed, then they had to be ipsilateral.
# Subjects assessed their baseline pain intensity (VAS) before receiving study drug (predose, Time 0) and their pain intensity (VAS) and pain relief (5-point categorical scale) at 15, 30, and 45 minutes and 1, 1.5, 2, 3, 4, 5, 6, 7, and 8 hours after Time 0 and immediately before the first dose of rescue medication. The 2-stopwatch method was used to record the time to perceptible and time to meaningful pain relief, respectively. Acetaminophen (1000 mg) was permitted as the initial rescue medication. Subjects were encouraged to wait at least 60 minutes after receiving study drug before taking rescue medication. […] Other restrictions included the following: no alcohol use from 24 hours before surgery until discharge on Day 1; nothing by mouth (NPO) from midnight before surgery until 1 hour after surgery; clear liquids only from 1 hour after surgery until 1 hour after dosing; and advancement of diet 1 hour after dosing according to standard practice.
# The primary efficacy endpoint was the sum of total pain relief (TOTPAR) over 0 to 8 hours (TOTPAR-8) after Time 0. The TOTPAR was calculated using the pain relief score (5-point categorical scale) at each follow-up time point weighted (multiplied) using the amount of time since the prior assessment.
# (§1) The secondary efficacy endpoints were as follows: • TOTPAR over 0 to 4 hours (TOTPAR-4) after Time 0 • Visual Analogue Scale (VAS) pain intensity difference (VASPID) at each scheduled time point after Time 0 • Time to onset of analgesia (measured as time to perceptible pain relief confirmed by meaningful pain relief) • VAS pain intensity score at each scheduled time point • VAS summed pain intensity difference (VASSPID) over 0 to 4 hours (VASSPID-4) and over 0 to 8 hours (VASSPID-8) after Time 0 • Pain relief score at each scheduled time point after Time 0 • Peak pain relief • Time to peak pain relief • Time to first perceptible pain relief • Time to meaningful pain relief • Proportion of subjects using rescue medication • Time to first use of rescue medication (duration of analgesia) • Patient's global evaluation of study drug Safety:
# The null hypothesis was that TOTPAR over 0 to 8 hours after Time 0 (TOTPAR-8) for placebo would be equal to TOTPAR-8 for 40-mg Indomethacin Nanoformulation Capsules. The null hypothesis was analyzed using analysis of covariance (ANCOVA) models, which included treatment effect and significant covariates. The effect of potential covariates, such as sex, baseline pain intensity, and surgical trauma rating, were assessed using appropriate ANCOVA models. The analysis was based on a 2-sided test at the significance level of 0.05.
# The least squares (LS) mean and 95% confidence interval (CI) for each treatment regimen, the mean (LS mean) difference between the 2 treatments, and the associated P value and 95% CI for the mean difference were computed from the ANCOVA model. This analysis utilized primarily the ITT population, and sensitivity analysis utilized the PP population.
# Other comparisons between the treatment regimens, including 20-mg Indomethacin Nanoformulation Capsules versus placebo and 400-mg celecoxib capsules versus placebo, were considered secondary but also utilized the ITT population. The primary efficacy variable was also summarized by site, but no P values or statistical tests for site were computed.
# Each efficacy endpoint was summarized descriptively by treatment group. […]
# [2] = system: pain after surgical removal of impacted third molars; test: Phase 2 dental pain study: patient's global evaluation of study drug; format: in vivo, human; conditions: 400 mg; ITT
# Experimental: as §1
# For ordinal secondary endpoints such as pain relief at each scheduled time point, peak pain relief, and global evaluation of study drug, descriptive summaries including the number and percentage of subjects within each category were provided for each treatment group. Nominal P values from Cochran-Mantel-Haenszel tests comparing the placebo group with other treatment groups were provided, but no formal statistical inferences were drawn on the basis of these tests.
structure (smiles),measurement,setting,value
Cc1ccc(-c2cc(C(F)(F)F)nn2-c2ccc(S(N)(=O)=O)cc2)cc1 [Celecoxib],"Pain relief score A Little (1), %","[1]; 15 minutes, ITT",(21.6) %
same,"Pain relief score None (0), %","[1]; 15 minutes, ITT",(74.5) %
same,"Pain relief score Some (2), %","[1]; 15 minutes, ITT",(3.9) %
same,"Pain relief score A Little (1), %","[1]; 30 minutes, ITT",(41.2) %
same,"Pain relief score A Lot (3), %","[1]; 30 minutes, ITT",(3.9) %
same,"Pain relief score None (0), %","[1]; 30 minutes, ITT",(51.0) %
same,"Pain relief score Some (2), %","[1]; 30 minutes, ITT",(3.9) %
same,"Pain relief score A Little (1), %","[1]; 45 minutes, ITT",(37.3) %
same,"Pain relief score A Lot (3), %","[1]; 45 minutes, ITT",(13.7) %
same,"Pain relief score Complete (4), %","[1]; 45 minutes, ITT",(2.0) %
same,"Pain relief score None (0), %","[1]; 45 minutes, ITT",(27.5) %
same,"Pain relief score Some (2), %","[1]; 45 minutes, ITT",(19.6) %
same,"Pain relief score A Little (1), %","[1]; 1 hour, ITT",(31.4) %
same,"Pain relief score A Lot (3), %","[1]; 1 hour, ITT",25.5%
same,"Pain relief score Complete (4), %","[1]; 1 hour, ITT",(3.9) %
same,"Pain relief score None (0), %","[1]; 1 hour, ITT",(15.7) %
same,"Pain relief score Some (2), %","[1]; 1 hour, ITT",(23.5) %
same,"Pain relief score A Little (1), %","[1]; 2 hours, ITT",(13.7) %
same,"Pain relief score A Lot (3), %","[1]; 2 hours, ITT",(49.0) %
same,"Pain relief score Complete (4), %","[1]; 2 hours, ITT",(5.9) %
same,"Pain relief score None (0), %","[1]; 2 hours, ITT",(17.6) %
same,"Pain relief score Some (2), %","[1]; 2 hours, ITT",(13.7) %
same,"Pain relief score A Little (1), %","[1]; 3 hours, ITT",(5.9) %
same,"Pain relief score A Lot (3), %","[1]; 3 hours, ITT",(51.0) %
same,"Pain relief score Complete (4), %","[1]; 3 hours, ITT",(5.9) %
same,"Pain relief score None (0), %","[1]; 3 hours, ITT",(21.6) %
same,"Pain relief score Some (2), %","[1]; 3 hours, ITT",(15.7) %
same,"Pain relief score A Little (1), %","[1]; 4 hours, ITT",(7.8) %
same,"Pain relief score A Lot (3), %","[1]; 4 hours, ITT",(49.0) %
same,"Pain relief score Complete (4), %","[1]; 4 hours, ITT",(9.8) %
same,"Pain relief score None (0), %","[1]; 4 hours, ITT",(27.5) %
same,"Pain relief score Some (2), %","[1]; 4 hours, ITT",(5.9) %
same,"Pain relief score A Little (1), %","[1]; 5 hours, ITT",(3.9) %
same,"Pain relief score A Lot (3), %","[1]; 5 hours, ITT",(43.1) %
same,"Pain relief score Complete (4), %","[1]; 5 hours, ITT",(11.8) %
same,"Pain relief score None (0), %","[1]; 5 hours, ITT",(31.4) %
same,"Pain relief score Some (2), %","[1]; 5 hours, ITT",(9.8) %
same,"Pain relief score A Little (1), %","[1]; 6 hours, ITT",(2.0) %
same,"Pain relief score A Lot (3), %","[1]; 6 hours, ITT",(37.3) %
same,"Pain relief score Complete (4), %","[1]; 6 hours, ITT",(17.6) %
same,"Pain relief score None (0), %","[1]; 6 hours, ITT",(37.3) %
same,"Pain relief score Some (2), %","[1]; 6 hours, ITT",(5.9) %
same,"Pain relief score A Lot (3), %","[1]; 7 hours, ITT",(43.1) %
same,"Pain relief score Complete (4), %","[1]; 7 hours, ITT",(13.7) %
same,"Pain relief score None (0), %","[1]; 7 hours, ITT",(41.2) %
same,"Pain relief score Some (2), %","[1]; 7 hours, ITT",(2.0) %
same,"Pain relief score A Lot (3), %","[1]; 8 hours, ITT",(41.2) %
same,"Pain relief score Complete (4), %","[1]; 8 hours, ITT",(13.7) %
same,"Pain relief score None (0), %","[1]; 8 hours, ITT",(41.2) %
same,"Pain relief score Some (2), %","[1]; 8 hours, ITT",(3.9) %
same,"Time to peak pain relief, Hazard ratio","[1]; Cox proportional hazards model, vs placebo, ITT",1.8
same,Peak pain relief: A Little (1),[1]; ITT,(11.8) %
same,Peak pain relief: A Lot (3),[1]; ITT,(47.1) %
same,Peak pain relief: Complete (4),[1]; ITT,(21.6) %
same,Peak pain relief: None (0),[1]; ITT,(7.8) %
same,Peak pain relief: Some (2),[1]; ITT,(11.8) %
same,Time to peak pain relief: subjects analyzed,[1]; ITT,(58.8) %
same,Time to peak pain relief: subjects censored,[1]; ITT,(41.2) %
same,"TOTPAR-4, Mean",[1]; ITT population,7.152
same,"TOTPAR-4, Median",[1]; ITT population,8.750
same,"Time to peak pain relief, Mean","[1]; Kaplan-Meier estimate, ITT",3.3 h
same,"Time to peak pain relief, Q25","[1]; Kaplan-Meier estimate, ITT",1.50 h
same,"Time to peak pain relief, Q50","[1]; Kaplan-Meier estimate, ITT",3.00 h
same,"Time to peak pain relief, Q75","[1]; Kaplan-Meier estimate, ITT",5.00 h
same,"TOTPAR-8, LS mean","[1]; Model 1 (primary): ANCOVA, baseline pain intensity as only covariate, ITT",14.822
same,"TOTPAR-8, LS mean difference vs placebo","[1]; Model 1 (primary), ITT",11.803
same,"TOTPAR-8, LS mean","[1]; Model 2: baseline pain intensity, gender and surgical trauma rating as covariates, ITT",14.797
same,"TOTPAR-8, LS mean difference vs placebo","[1]; Model 2, ITT",11.864
same,"TOTPAR-8, Median","[1]; Overall, ITT population",19.250
same,"TOTPAR-8, Mean","[1]; Overall, ITT population, single oral dose (celecoxib 400 mg)",14.858
same,"TOTPAR-8, Mean","[1]; Site 50048, ITT population",15.524
same,"TOTPAR-8, Median","[1]; Site 50048, ITT population",20.500
same,"TOTPAR-8, Mean","[1]; Site 50053, ITT population",14.021
same,"TOTPAR-8, Median","[1]; Site 50053, ITT population",14.625
same,"TOTPAR-8, Mean","[1]; Site 50054, ITT population",14.639
same,"TOTPAR-8, Median","[1]; Site 50054, ITT population",20.750
same,"Pain relief score A Little (1), %","[1]; […], ITT",(17.6) %
same,"Pain relief score A Lot (3), %","[1]; […], ITT",(31.4) %
same,"Pain relief score Complete (4), %","[1]; […], ITT",(3.9) %
same,"Pain relief score None (0), %","[1]; […], ITT",(17.6) %
same,"Pain relief score Some (2), %","[1]; […], ITT",(29.4) %
same,Time point from which pain relief scores were statistically significantly more favorable than placebo,[1]; onward after Time 0,≥ 45 min
same,"Patient's global evaluation of study drug: Excellent, %",[2],(15.7) %
same,"Patient's global evaluation of study drug: Fair, %",[2],(17.6) %
same,"Patient's global evaluation of study drug: Good, %",[2],(19.6) %
same,"Patient's global evaluation of study drug: Poor, %",[2],(11.8) %
same,"Patient's global evaluation of study drug: Very Good, %",[2],(35.3) %
